In US4613596A, “Amino methyl furans and pharmaceutical compositions” (Magis Farmaceutrici s.r.l., priority 1982, dated 1986):

Key:
[1] = Acute toxicity (LD50) in mouse; assay type: in vivo; settings: in vivo, 10 days observation
Description: (§1) Acute toxicity was studied in male and female mice of Swiss stock, and in male and female albino rats of Wistar stock, by administering the active principle orally, intravenously and intramuscularly.
(§2) For each method of administration, doses in geometrical progression were administered to 10 animals for each dose over a period of observation of 10 days.
(§3) On termination of the period of observation, the LD50 and the relative reliability limits were calculated by the method of Litchfield and Wilcoxon (Pharmacol. Exp. Ther., 96-19, 1949).

[2] = Acute toxicity (LD50) in rat; assay type: in vivo; settings: in vivo, 10 days observation
Description: as §1, §2, §3

mice of Swiss stock = test: Acute toxicity (LD50) in mouse; assay type: in vivo; settings: 10 days observation; for LD50, mouse, intram. admin.: intramuscular; for LD50, mouse, intrav. admin.: intravenous; for LD50, mouse, oral admin.: Litchfield and Wilcoxon
Description: as §1, §2, §3

[3] = tested on: albino rats of Wistar stock; test: Acute toxicity (LD50) in rat; assay type: in vivo; settings: 10 days observation; for LD50, rat, intram. admin.: intramuscular; for LD50, rat, intrav. admin.: intravenous
Description: as §1, §2, §3

[4] = tested on: gastric ulcers induced by the ligature of the pylorus; test: Gastric ulcers induced by ligature of the pylorus; assay type: in vivo, rat (Sprague Dawley); settings: oral, one hour after operation; compounds and ranitidine 1, 3, 10, 30 mg/kg; cimetidine 3, 10, 30, 100 mg/kg
Description: To study the effect of the new compounds according to the present invention, 50 male and female rats of Sprague Dawley stock weighing approximately 200 grams were used for each compound examined.
The animals, under diet, were subjected to legature of the pylorus.
One hour after this operation, the animals were treated orally either with doses of 1, 3, 10 and 30 mg/kg of the examined compounds, or with doses of 3, 10, 30 and 100 mg/kg of cimetidine, or with doses of 1, 3, 10 and 30 mg/kg of ranitidine.

[5] = im, intramuscular, read-out: LD50, mouse, intram. admin.
[6] = intravenous, read-out: LD50, mouse, intrav. admin.
[7] = oral, Litchfield and Wilcoxon, read-out: LD50, mouse, oral admin.
[8] = im, intramuscular, read-out: LD50, rat, intram. admin.
[9] = intravenous, read-out: LD50, rat, intrav. admin.
[10] = oral, read-out: LD50, rat, oral admin.

## CN(C)Cc1ccc(CSCCNC(=C[N+](=O)[O-])N2CCC(Cc3ccccc3)CC2)o1 [AU/005, 1-N-[2-[[5-[(dimethylamino)methyl]furfuryl]thio]ethyl]-amino-1-(4-benzyl-piperidino)-2-nitroethene]
[1]; [5]
  LD50 at 240 h: 300 mg/kg
[1]; [6]
  LD50 at 240 h: 95 mg/kg
[1]; [7]
  LD50 at 240 h: 2700 mg/kg
[2]; [8]
  LD50 at 240 h: 2100 mg/kg
[2]; [9]
  LD50 at 240 h: 110 mg/kg
[2]; [10]
  LD50 at 240 h: 5500 mg/kg

## CN(C)Cc1ccc(CSCCNC(=C[N+](=O)[O-])N[C@H]2C[C@H]3CC[C@@H]2C3)o1 (relative stereo) [AU/019]
[1]; [5]
  LD50 at 240 h: 300 mg/kg
[1]; [6]
  LD50 at 240 h: 100 mg/kg
[1]; [7]
  LD50 at 240 h: 2600 mg/kg
[2]; [8]
  LD50 at 240 h: 2100 mg/kg
[2]; [9]
  LD50 at 240 h: 120 mg/kg

## CN(C)Cc1ccc(CSCCNC(=C[N+](=O)[O-])N2CCCCCC2)o1 [AU/013, 1-N-[2-[[5-[(dimethylamino)methyl]furfuryl]thio]ethyl]-amino-1-hexamethyleneimino-2-nitroethene]
[1]; [5]
  LD50 at 240 h: 300 mg/kg
[1]; [6]
  LD50 at 240 h: 90 mg/kg
[1]; [7]
  LD50 at 240 h: 2700 mg/kg
[2]; [8]
  LD50 at 240 h: 2100 mg/kg
[2]; [9]
  LD50 at 240 h: 100 mg/kg
[2]; [10]
  LD50 at 240 h: 5530 mg/kg

## CN(C)Cc1ccc(CSCCNC(=C[N+](=O)[O-])NC2CC3C=CC2C3)o1 (stereo not drawn) [AU/020]
[1]; [5]
  LD50 at 240 h: 300 mg/kg
[1]; [6]
  LD50 at 240 h: 110 mg/kg
[1]; [7]
  LD50 at 240 h: 2700 mg/kg
[2]; [8]
  LD50 at 240 h: 2100 mg/kg
[2]; [9]
  LD50 at 240 h: 110 mg/kg

## CCN1CCCC(NC(=C[N+](=O)[O-])NCCSCc2ccc(CN(C)C)o2)C1 (stereo not drawn) [AU/003]
[1]; [5]
  LD50 at 240 h: 300 mg/kg
[1]; [6]
  LD50 at 240 h: 90 mg/kg
[1]; [7]
  LD50 at 240 h: 2800 mg/kg
[2]; [8]
  LD50 at 240 h: 2200 mg/kg
[2]; [9]
  LD50 at 240 h: 100 mg/kg

## CN(C)Cc1ccc(CSCCNC(=C[N+](=O)[O-])N2CCC2)o1 [AU/008, 1-N-[2-[[5-[(dimethylamino)methyl]furfuryl]thio]ethyl]amino-1-cyclopropyleneimino-2-nitroethene]
[1]; [5]
  LD50 at 240 h: 310 mg/kg
[1]; [6]
  LD50 at 240 h: 100 mg/kg
[1]; [7]
  LD50 at 240 h: 2600 mg/kg
[2]; [8]
  LD50 at 240 h: 2200 mg/kg
[2]; [9]
  LD50 at 240 h: 100 mg/kg

## CN(C)Cc1ccc(CSCCNC(=C[N+](=O)[O-])NC2CCCCC2)o1 [AU/009, N-[2-[[5-[(dimethylamino)methyl]furfuryl]thio]ethyl]-N'-(cyclohexyl)-2-nitro-1,1-ethenediamine]
[1]; [5]
  LD50 at 240 h: 300 mg/kg
[1]; [6]
  LD50 at 240 h: 100 mg/kg
[1]; [7]
  LD50 at 240 h: 2600 mg/kg
[2]; [8]
  LD50 at 240 h: 2200 mg/kg
[2]; [9]
  LD50 at 240 h: 110 mg/kg

## CN(C)Cc1ccc(CSCCNC(=C[N+](=O)[O-])NCC2=CCC=CC2)o1 [AU/011, N-[2-[[5-[(dimethylamino)methyl]furfuryl]thio]ethyl]-N'-(1,4-cyclohexadienyl-2-methyl)-2-nitro-1,1-ethenediamine]
Mice of Swiss stock
  LD50, mouse, intram. admin.: 310 mg/kg
  LD50, mouse, intrav. admin.: 90 mg/kg
  LD50, mouse, oral admin.: 2700 mg/kg
[3]
  LD50, rat, intram. admin.: 2100 mg/kg
  LD50, rat, intrav. admin.: 110 mg/kg
[3]; oral
  LD50, rat, oral admin.: 5510.0 mg/kg

## CN(C)Cc1ccc(CSCCNC(=C[N+](=O)[O-])N2CCN(Cc3ccccc3)CC2)o1 [AU/006, 1-N-[2-[[5-[(dimethylamino)methyl]furfuryl]thio]ethyl]amino-1-(4-benzyl-piperazino)-2-nitroethene]
[1]; [5]
  LD50 at 240 h: 300 mg/kg
[1]; [6]
  LD50 at 240 h: 90 mg/kg
[1]; [7]
  LD50 at 240 h: 2700 mg/kg
[2]; [8]
  LD50 at 240 h: 2100 mg/kg
[2]; [9]
  LD50 at 240 h: 100 mg/kg

## CN(C)Cc1ccc(CSCCNC(=C[N+](=O)[O-])NC2CCCC2)o1 [AU/016, N-[2-[[5-[(dimethylamino)methyl]furfuryl]thio]ethyl]-N'-cyclopentyl-2-nitro-1,1-ethenediamine]
[1]; [5]
  LD50 at 240 h: 300 mg/kg
[1]; [6]
  LD50 at 240 h: 90 mg/kg
[1]; [7]
  LD50 at 240 h: 2700 mg/kg
[2]; [8]
  LD50 at 240 h: 2200 mg/kg
[2]; [9]
  LD50 at 240 h: 100 mg/kg

## CC1CCN(C(=C[N+](=O)[O-])NCCSCc2ccc(CN(C)C)o2)CC1 [AU/002, 1-N-[2-[[5-[(dimethylamino)methyl]furfuryl]thio]ethyl]amino-1-(4-methyl-piperidino)-2-nitro-ethene]
[1]; [5]
  LD50 at 240 h: 320 mg/kg
[1]; [6]
  LD50 at 240 h: 100 mg/kg
[1]; [7]
  LD50 at 240 h: 2700 mg/kg
[2]; [8]
  LD50 at 240 h: 2000 mg/kg
[2]; [9]
  LD50 at 240 h: 100 mg/kg

## CN(C)Cc1ccc(CSCCNC(=C[N+](=O)[O-])N2CCOCC2)o1 [AU/018, 1-N-[2-[[5-[(dimethylamino)methyl]furfuryl]thio]ethyl]-amino-1-morpholino-2-nitroethene]
[1]; [5]
  LD50 at 240 h: 350 mg/kg
[1]; [6]
  LD50 at 240 h: 90 mg/kg
[1]; [7]
  LD50 at 240 h: 2700 mg/kg
[2]; [8]
  LD50 at 240 h: 2200 mg/kg
[2]; [9]
  LD50 at 240 h: 100 mg/kg

## CNC(=C[N+](=O)[O-])NCCSCc1ccc(CN(C)C)o1 [ranitidine]
[4]
  Inhibition of incidence of gastric ulcers induced by ligature of the pylorus: significantly inhibit the incidence of gastric ulcers

## CN(C)Cc1ccc(CSCCNC(=C[N+](=O)[O-])NC2=CCC=CC2)o1 [AU/010, N-[2-[[5-[(dimethylamino)methyl]furfuryl]thio]ethyl]-N'-(1,4-ciclohexadienyl)-2-nitro-1,1-ethenediamine]
Mice of Swiss stock
  LD50, mouse, intram. admin.: 310 mg/kg
  LD50, mouse, intrav. admin.: 95 mg/kg
  LD50, mouse, oral admin.: 2700 mg/kg
[3]
  LD50, rat, intram. admin.: 2200 mg/kg
  LD50, rat, intrav. admin.: 110 mg/kg

## CN(C)Cc1ccc(CSCCNC(=C[N+](=O)[O-])N2CCCC2)o1 [AU/017, 1-N-[2-[[5-[(dimethylamino)methyl]furfuryl]thio]ethyl]-amino-1-pyrrolidino-2-nitroethene]
[1]; [5]
  LD50 at 240 h: 300 mg/kg
[1]; [6]
  LD50 at 240 h: 100 mg/kg
[1]; [7]
  LD50 at 240 h: 2600 mg/kg
[2]; [8]
  LD50 at 240 h: 2200 mg/kg
[2]; [9]
  LD50 at 240 h: 100 mg/kg

## CN(C)Cc1ccc(CSCCNC(=C[N+](=O)[O-])N2CCN(CCO)CC2)o1 [AU/004, 1-N-[2-[[5-[(dimethylamino)methyl]furfuryl]thio]ethyl]-amino-1-4-(2-hydroxyethyl)-1-piperazino ethene]
[1]; [5]
  LD50 at 240 h: 300 mg/kg
[1]; [6]
  LD50 at 240 h: 95 mg/kg
[1]; [7]
  LD50 at 240 h: 2700 mg/kg
[2]; [8]
  LD50 at 240 h: 2000 mg/kg
[2]; [9]
  LD50 at 240 h: 110 mg/kg

## CN(C)Cc1ccc(CSCCNC(=C[N+](=O)[O-])NC2CCCCCC2)o1 [AU/015, N-[2-[[5-[(dimethylamino)methyl]furfuryl]thio]ethyl]-N'-cycloheptyl-2-nitro-1,1-ethenediamine]
[1]; [5]
  LD50 at 240 h: 300 mg/kg
[1]; [6]
  LD50 at 240 h: 100 mg/kg
[1]; [7]
  LD50 at 240 h: 2800 mg/kg
[2]; [8]
  LD50 at 240 h: 2200 mg/kg
[2]; [9]
  LD50 at 240 h: 100 mg/kg

## CN/C(=N/CCSCc1nc[nH]c1C)NC#N [cimetidine]
[4]
  Inhibition of incidence of gastric ulcers induced by ligature of the pylorus: significantly inhibit the incidence of gastric ulcers

## CN(C)Cc1ccc(CSCCNC(=C[N+](=O)[O-])N2CC2)o1 [AU/007, 1-N-[2-[[5-[(dimethylamino)methyl]furfuryl]thio]ethyl]amino-1-ethyleneimino-2-nitroethene]
[1]; [5]
  LD50 at 240 h: 310 mg/kg
[1]; [6]
  LD50 at 240 h: 100 mg/kg
[1]; [7]
  LD50 at 240 h: 2800 mg/kg
[2]; [8]
  LD50 at 240 h: 2100 mg/kg
[2]; [9]
  LD50 at 240 h: 100 mg/kg

## CN(C)Cc1ccc(CSCCNC(=C[N+](=O)[O-])NN2CCCCCC2)o1 [AU/014, N-[2-[[5-[(dimethylamino)methyl]furfuryl]thio]ethyl]-N'-(hexamethyleneimino)-2-nitro-1,1-ethenediamine]
[1]; [5]
  LD50 at 240 h: 300 mg/kg
[1]; [6]
  LD50 at 240 h: 90 mg/kg
[1]; [7]
  LD50 at 240 h: 2600 mg/kg
[2]; [8]
  LD50 at 240 h: 2200 mg/kg
[2]; [9]
  LD50 at 240 h: 100 mg/kg

## CN(C)Cc1ccc(CSCCNC(=C[N+](=O)[O-])N2CCCCC2)o1
[1]; [5]
  LD50 at 240 h: 300 mg/kg
[1]; [6]
  LD50 at 240 h: 90 mg/kg
[1]; [7]
  LD50 at 240 h: 2600 mg/kg
[2]; [8]
  LD50 at 240 h: 2100 mg/kg
[2]; [9]
  LD50 at 240 h: 100 mg/kg

## N-[2-[[5-[(dimethylamino)methyl]furfuryl]thio]ethyl]-N'-(1,4-cyclohexadienyl-2-ethyl)-2-nitro-1,1-ethenediamine [AU/012]
Mice of Swiss stock
  LD50, mouse, intram. admin.: 300 mg/kg
  LD50, mouse, intrav. admin.: 90 mg/kg
  LD50, mouse, oral admin.: 2800 mg/kg
[3]
  LD50, rat, intram. admin.: 2100 mg/kg
  LD50, rat, intrav. admin.: 110 mg/kg
